“Also recorded” adds a separate entry of the source. Like-named read-outs stand apart in the source and are kept apart here. Each block holds one compound with its values, some of them ahead of it.
How the values were obtained:
[1] = tested on: SH-SY5Y cells stably expressing Epac1-camps; test: FRET imaging of cAMP with Epac1-camps biosensor; assay type: cell-based; details: added after forskolin 5 μM
Procedure: HEK293 cells were maintained in DMEM containing 10% (v/v) FBS, 2 mM L-glutamine and 1% penicillin/streptomycin. SH-SY5Y cells were maintained in DMEM:F12 (1:1) containing 10% (v/v) FBS, 2 mM L-glutamine and 1% penicillin/streptomycin. For FRET analysis SH-SY5Y cells stably expressing Epac1-camps under G418 selection (500 μg/ml) were seeded onto 22 mm round glass coverslips and maintained in a 6 well plate 24 h prior to use.
FRET imaging experiments were performed on SH-SY5Y-Epac1-camps stables. Cells were maintained at room temperature in DPBS (Invitrogen, UK), with added CaCl2 and MgCl2, and imaged on an inverted microscope (Olympus IX71) with a PlanApoN, 60X, NA 1.42 oil, 0.17/FN 26.5, objective (Japan). The microscope was equipped with a CCD camera (cool SNAP HQ monochrome, Photometrics), and a beam-splitter optical device (Dual-channel simultaneous-imaging system, DV^2 mag biosystem (ET-04-EM)). Imaging acquisition and analysis software used was Meta imaging series 7.1, Metafluor, and processed using ImageJ (http://rsb.info.nih.gov/ij/). FRET changes were measured as changes in the background-subtracted 480/545-nm fluorescence emission intensity on excitation at 430 nm and expressed as either R/R0, where R is the ratio at time t and R0 is the ratio at time = 0 s, or ΔR/R0, where ΔR = R − R0. Values are expressed as the mean ± SEM.

PDE4B2 = target: T1, PDE4B2 (Homo sapiens, UniProt Q07343); test: PDE activity two-step radioassay, PDE4B2 lysate; assay type: biochemical; details: for IC50: PDE4B2 from transfected HEK293 lysate, cAMP hydrolysis, n = 3
T1 construct: expressed in transfected cells; host or cells: HEK293
T1 sequence (Q07343 1-564 isoform Q07343-2): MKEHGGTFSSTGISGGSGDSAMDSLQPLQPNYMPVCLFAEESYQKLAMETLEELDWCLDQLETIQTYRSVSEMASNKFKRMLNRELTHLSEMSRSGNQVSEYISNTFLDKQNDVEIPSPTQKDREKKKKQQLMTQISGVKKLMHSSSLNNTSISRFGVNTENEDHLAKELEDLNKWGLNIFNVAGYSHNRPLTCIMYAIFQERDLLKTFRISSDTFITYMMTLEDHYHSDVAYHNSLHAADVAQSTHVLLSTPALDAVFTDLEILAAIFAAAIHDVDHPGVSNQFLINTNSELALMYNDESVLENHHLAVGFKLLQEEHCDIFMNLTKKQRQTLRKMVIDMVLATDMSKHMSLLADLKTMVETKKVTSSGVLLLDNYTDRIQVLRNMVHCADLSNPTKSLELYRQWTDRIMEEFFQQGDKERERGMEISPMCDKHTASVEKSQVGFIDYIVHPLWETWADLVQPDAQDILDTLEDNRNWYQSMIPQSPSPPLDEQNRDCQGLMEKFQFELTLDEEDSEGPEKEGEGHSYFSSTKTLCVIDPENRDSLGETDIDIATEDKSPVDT
Procedure: (§1) Expression plasmids encoding human PDE4 were as previously described by us [[27,28]]. The plasmids were purified from Escherichia coli using the Maxi-prep system (Qiagen, UK). For transient transfections, HEK293 cells were seeded at a 1:3 ratio into culture flasks 24 h before transfection so that cells were ~60% confluent by the time of transfection. Transfections were carried out using PolyFect® transfection reagent (Qiagen, UK) in accordance with manufacturer's instructions.
Samples were then frozen on solid CO2, thawed and then manually homogenised, followed by passage through a 26-gauge needle several times to ensure complete cell lysis. Cells were centrifuged at 13,000 rpm for 10 min to remove any unbroken cells, and the resulting supernatant was frozen in solid CO2 and stored at −80 °C until required. For experimentation, the protein concentration of whole-cell lysate from transfected and mock-transfected (vector only) cells was equalised (typically to 1 μg/μl). Protein concentration was determined through Bradford Assay using bovine serum albumin as standard.
(§2) PDE activity was determined using a two-step radioassay procedure as described previously. Activities for each PDE subtype were related to a non-drug treated sample (100% control) over an increasing dose of the indicated compounds. IC50 values were calculated using.

SH-SY5Y cells = test: Hsp20 phosphorylation assay (western blot, phospho-serine 16); assay type: cell-based; details: for Hsp20 phosphorylation (serine 16): rolipram 10 μM, moexipril, 7, 8 at 50 μM, 0.5, 1, 2 h
Procedure: Compounds were diluted in media and added to cells for 0.5, 1 and 2 h prior to harvesting using 3T3 lysis buffer (1% Triton X-100, 50 mM Hepes, pH 7.2, 10 mM EDTA and 100 mM NaH2PO4) supplemented with protease inhibitor Mini-Complete (Roche) and phosphatase inhibitor PHOS-stop (Roche, UK). Hsp20 expression was analysed using standard SDS-PAGE and Western Blotting techniques using the phospho-Hsp20 antibody (ab58522 Abcam, UK) and alpha-tubulin-HRP antibody (ab40742 Abcam, UK) as the loading control. Western blotting for PDE4s was undertaken using antibodies previously described by us.

[2] = cited from earlier work; for brain uptake: ref not given
PDE4D5 = target: T2, PDE4D5 (Homo sapiens, UniProt Q08499); test: PDE activity two-step radioassay, PDE4D5 lysate; assay type: biochemical
T2 construct: expressed in transfected cells; host or cells: HEK293
T2 sequence (Q08499 1-745 isoform Q08499-6): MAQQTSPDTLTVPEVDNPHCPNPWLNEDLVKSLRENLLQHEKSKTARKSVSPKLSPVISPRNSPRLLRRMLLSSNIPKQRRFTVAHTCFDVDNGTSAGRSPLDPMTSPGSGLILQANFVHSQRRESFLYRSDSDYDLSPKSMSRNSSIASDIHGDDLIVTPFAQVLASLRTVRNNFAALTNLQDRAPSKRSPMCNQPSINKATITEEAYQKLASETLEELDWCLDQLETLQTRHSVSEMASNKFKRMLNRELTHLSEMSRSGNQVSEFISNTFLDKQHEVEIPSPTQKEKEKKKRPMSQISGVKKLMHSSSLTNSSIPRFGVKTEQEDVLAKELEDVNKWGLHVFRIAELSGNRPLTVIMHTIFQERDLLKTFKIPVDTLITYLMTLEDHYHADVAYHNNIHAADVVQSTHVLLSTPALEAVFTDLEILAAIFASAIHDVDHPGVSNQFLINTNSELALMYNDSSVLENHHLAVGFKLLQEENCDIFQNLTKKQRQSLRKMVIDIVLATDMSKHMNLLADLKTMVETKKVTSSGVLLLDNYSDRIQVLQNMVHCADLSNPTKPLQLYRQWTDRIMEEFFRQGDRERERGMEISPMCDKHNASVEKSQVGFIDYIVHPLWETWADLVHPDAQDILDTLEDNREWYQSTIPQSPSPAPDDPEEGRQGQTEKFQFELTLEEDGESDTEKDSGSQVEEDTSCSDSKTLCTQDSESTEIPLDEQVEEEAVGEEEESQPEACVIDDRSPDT
Procedure: as §1
Cells (~90–100% confluent) were transfected for 48 h with cDNA encoding PDE4B2, PDE4A5, PDE4D5, PDE8A and PDE5, washed with PBS and harvested by using a cell scraper in KHEM buffer (50 mM KCl, 50 mM HEPES; pH 7.2, 10 mM EGTA, 1.92 mM MgCl2, 1 mM dithiothreitol (DTT)) supplemented with protease inhibitor Mini-Complete (Roche, UK). Samples were then frozen on solid CO2, thawed and then manually homogenised, followed by passage through a 26-gauge needle several times to ensure complete cell lysis. Cells were centrifuged at 13,000 rpm for 10 min to remove any unbroken cells, and the resulting supernatant was frozen in solid CO2 and stored at −80 °C until required. […] Protein concentration was determined through Bradford Assay using bovine serum albumin as standard.
PDE activity was determined using a two-step radioassay procedure as described previously. […] IC50 values were calculated using. […]

[3] = Colloidal aggregation by dynamic light scattering; assay type: physicochemical
[4] = set-up: method as in printed; details: oral dose of 15 mg, ref not given, cited from earlier work
PDE8A = target: T3, PDE8A (Homo sapiens, UniProt O60658); test: PDE activity two-step radioassay, PDE8A lysate; assay type: biochemical; details: dose response, Fig. 3C
T3 construct: expressed in transfected cells; host or cells: HEK293
T3 sequence (O60658 whole entry, species assumed): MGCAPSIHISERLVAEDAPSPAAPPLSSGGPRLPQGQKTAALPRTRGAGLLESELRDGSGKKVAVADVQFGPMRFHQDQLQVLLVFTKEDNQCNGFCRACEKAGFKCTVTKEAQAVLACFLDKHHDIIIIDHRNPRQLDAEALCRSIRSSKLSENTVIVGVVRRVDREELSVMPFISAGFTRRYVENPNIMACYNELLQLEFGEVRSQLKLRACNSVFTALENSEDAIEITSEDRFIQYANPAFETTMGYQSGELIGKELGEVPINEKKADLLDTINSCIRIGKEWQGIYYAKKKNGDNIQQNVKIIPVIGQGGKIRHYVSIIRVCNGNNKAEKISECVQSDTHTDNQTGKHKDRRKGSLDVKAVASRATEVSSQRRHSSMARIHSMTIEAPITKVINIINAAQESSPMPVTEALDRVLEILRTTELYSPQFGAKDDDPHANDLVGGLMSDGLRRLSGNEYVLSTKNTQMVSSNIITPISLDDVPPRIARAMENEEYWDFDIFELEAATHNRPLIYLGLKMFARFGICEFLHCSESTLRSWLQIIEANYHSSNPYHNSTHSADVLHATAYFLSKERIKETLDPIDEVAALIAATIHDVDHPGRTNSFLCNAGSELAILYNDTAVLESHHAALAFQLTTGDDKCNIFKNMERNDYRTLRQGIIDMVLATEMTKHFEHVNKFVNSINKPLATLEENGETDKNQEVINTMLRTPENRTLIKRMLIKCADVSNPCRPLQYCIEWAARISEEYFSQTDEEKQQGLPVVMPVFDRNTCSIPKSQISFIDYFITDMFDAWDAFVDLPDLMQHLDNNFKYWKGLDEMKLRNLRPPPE
Procedure: (§3) Cells (~90–100% confluent) were transfected for 48 h with cDNA encoding PDE4B2, PDE4A5, PDE4D5, PDE8A and PDE5, washed with PBS and harvested by using a cell scraper in KHEM buffer (50 mM KCl, 50 mM HEPES; pH 7.2, 10 mM EGTA, 1.92 mM MgCl2, 1 mM dithiothreitol (DTT)) supplemented with protease inhibitor Mini-Complete (Roche, UK). Samples were then frozen on solid CO2, thawed and then manually homogenised, followed by passage through a 26-gauge needle several times to ensure complete cell lysis. Cells were centrifuged at 13,000 rpm for 10 min to remove any unbroken cells, and the resulting supernatant was frozen in solid CO2 and stored at −80 °C until required. For experimentation, the protein concentration of whole-cell lysate from transfected and mock-transfected (vector only) cells was equalised (typically to 1 μg/μl). Protein concentration was determined through Bradford Assay using bovine serum albumin as standard.
as §2, with “using. In all cases, the transfected PDE accounted for over 97% of the total PDE activity when compared with the untransfected control lysates.” for “using.”

beta-lactamase = beta-lactamase (Escherichia coli, UniProt P00811); test: beta-lactamase inhibition (aggregation counter-screen); assay type: biochemical; details: at 10 or 100 μM
beta-lactamase, sequence (P00811 20-377): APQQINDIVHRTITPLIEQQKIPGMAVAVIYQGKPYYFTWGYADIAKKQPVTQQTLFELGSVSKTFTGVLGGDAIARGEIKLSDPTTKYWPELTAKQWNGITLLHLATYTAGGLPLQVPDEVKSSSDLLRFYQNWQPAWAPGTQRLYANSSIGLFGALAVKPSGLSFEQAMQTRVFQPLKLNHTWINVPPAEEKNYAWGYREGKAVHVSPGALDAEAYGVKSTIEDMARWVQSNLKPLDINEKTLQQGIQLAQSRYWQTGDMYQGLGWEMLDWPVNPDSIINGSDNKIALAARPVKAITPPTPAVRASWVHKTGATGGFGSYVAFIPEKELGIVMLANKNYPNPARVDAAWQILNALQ

porcine serum ACE = tested on: porcine serum ACE; set-up: method as in PMID 3508548, PMID 2999531; details: vs porcine serum ACE; cited from earlier work
PDE5 = target: T4, PDE5 (Homo sapiens, UniProt O76074); test: PDE activity two-step radioassay, PDE5 lysate; assay type: biochemical; details: dose response, Fig. 3C
T4 construct: expressed in transfected cells; host or cells: HEK293
Procedure: as §3
as §2, with “using. In all cases, the transfected PDE accounted for over 97% of the total PDE activity when compared with the untransfected control lysates.” for “using.”

[5] = set-up: method as in PMID 3508548, PMID 2999531; details: use in hypertension; cited from earlier work

IC50 (PDE4B2): 89 µM
Compound: COc1cc2c(cc1OC)CN(C(=O)Cn1cnc3ccccc3c1=O)[C@H](C(=O)O)C2 (racemic) [Compound 7]
cellular cAMP increase (FRET ratio change) over forskolin alone [1]: significantly enhanced
Hsp20 phosphorylation (serine 16) (SH-SY5Y cells): induced Hsp20 phosphorylation

fold better IC50 than moexipril (PDE4B2; PDE4B2): 7 fold
IC50 (PDE4B2): 6.9 µM
Compound: COc1cc2c(cc1OC)CN(C(=O)CCc1c[nH]c3ccccc13)[C@H](C(=O)O)C2 (racemic) [Compound 8]
cellular cAMP increase (FRET ratio change) over forskolin alone [1]: significantly enhanced
Hsp20 phosphorylation (serine 16) (SH-SY5Y cells): induced Hsp20 phosphorylation

Compound: CCCCCCOC(=O)[C@]1(O)C[C@@H]2O[C@@]1(C)n1c3ccccc3c3c4c(c5c6ccccc6n2c5c31)C(=O)NC4 [KT5720]
effect on Hsp20 phosphorylation induced by moexipril and forskolin (SH-SY5Y cells; KT5720 4 μM 20 min before forskolin 10 μM with moexipril 50 μM, 5 min): attenuate

Compound: COc1ccc([C@]2(C#N)CC[C@@H](C(=O)O)CC2)cc1OC1CCCC1 [cilomilast]
brain penetration [2]: limited

Compound: CCOC(=O)[C@H](CCc1ccccc1)N[C@@H](C)C(=O)N1Cc2cc(OC)c(OC)cc2C[C@H]1C(=O)O [moexipril]
IC50 (PDE4D5; PDE4D5, n = 3): 230 µM
fold lower sensitivity to inhibition than PDE4B2 (PDE4D5; PDE4D5 vs PDE4B2): 6 fold
colloidal aggregation [3]: no particles were observed
cellular cAMP increase (FRET ratio change) over forskolin alone [1]: markedly potentiated; also recorded: significantly enhance
brain uptake [2]: poor uptake by the brain
Cmax ([4]; conversion of 25 μg/L, read-out: Cmax): ~50 nM
Cmax ([4]; one PK assessment): 25 µg/L
IC50 (PDE4B2): 38 µM
Hsp20 phosphorylation (serine 16) (SH-SY5Y cells): significantly increased
activity against PDE8A (PDE8A): no activity
inhibition of beta-lactamase (beta-lactamase): did not inhibit
IC50 (porcine serum ACE): 40 nM
activity against PDE5 (PDE5): no activity
emetogenic activity [5]: apparently lacking emetogenic activity

Compound: COc1cc2c(cc1OC)CN(C(=O)[C@H](C)N[C@@H](CCc1ccccc1)C(=O)O)[C@H](C(=O)O)C2 [moexiprilat]
brain uptake [2]: poor uptake by the brain

Compound: COc1ccc(C2CNC(=O)C2)cc1OC1CCCC1 (stereo not shown) [rolipram]
Hsp20 phosphorylation (serine 16) (SH-SY5Y cells): significantly increased
